Source: patent US12685490B2 (The Board of Trustees of the Leland Stanford Junior …, priority 2020, dated 2026)
pIC50, pKd: −log10 of the molar value. Read-outs that look alike come from different tables or passages of the source. Values belong to the molecule of their own block, whether it stands above or below them. Residues, ends and D or L forms follow the SMILES beside them.

How the values were obtained:
IAPP [1] = biological target: T1, IAPP (Homo sapiens, UniProt P10997); test: Thioflavin T (ThT) binding assay of IAPP fibrillogenesis; type: biochemical; details: for effect on IAPP amyloid self-assembly (fibrillogenesis): IAPP/peptide 1/1
T1 construct: made in house; host or cells: chemical synthesis (Fmoc solid-phase, Rink resin)
T1 sequence (P10997 34-70 limits assumed): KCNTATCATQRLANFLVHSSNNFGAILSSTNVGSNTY
Description: Of note, an incubation of LL-37 alone was also included. At the indicated time points aliquots were mixed with the ThT solution consisting of 20 μM ThT in 0.05 M glycine/NaOH (pH 8.5) and binding was determined by measuring fluorescence emission at 486 nm upon excitation at 450 nm using a Multilabel reader VictorX3 (Perkin Elmer Life Sciences). […] An aliquot of a solution consisting mostly of IAPP fibrils (fIAPP) based on ThT binding and TEM (FIGS. 18-19) (7 days aged IAPP (16.5 μM) made as above) was added to the incubations resulting in a final seed (fIAPP) concentration of 1.65 μM. Incubations of (unseeded) IAPP alone (16.5 μM) and of 10% fIAPP alone were included as controls. ThT binding was determined at the indicated time points as above. […] Solutions containing (unseeded) IAPP alone (16.5 μM), IAPP seeded with fIAPP (10%), and IAPP seeded with LL-37-treated fIAPP (10%) were made in ThT assay buffer and kinetics of fibrillogenesis were determined by the ThT binding assay as described above.

[2] = system: IAPP cytotoxicity in RIN5fm cells; test: MTT reduction assay: formation of β-cell damaging IAPP assemblies; type: cell-based, rat
Description: (§1) Briefly, RIN5fm cells were cultured and plated in 96-well plates as described. Solutions of IAPP alone and its mixtures with peptides were aged in ThT assay buffer as described under “ThT binding assays”. At the indicated incubation time points (24 h or 7 days) aliquots were diluted with cell culture medium and added to the cells. Following incubation with the cells for ~20 h (37° C., humified atmosphere containing 5% CO2), cell damage was verified by the MTT reduction assay.

Fluos-IAPP = biological target: T2, Fluos-IAPP (Homo sapiens, UniProt P10997); test: Fluorescence spectroscopic titrations; type: binding; details: for pKd: pH 7.4, mean (SD) of 3 binding curves, read-out: app. Kd
T2 construct: made in house; host or cells: chemical synthesis
T2 sequence (P10997 34-70 limits assumed): T1 sequence (P10997 34-70 limits assumed)
Description: Fluorescence spectroscopic titration studies were performed with a JASCO FP-6500 fluorescence spectrophotometer using a previously described experimental protocol. Briefly, excitation was at 492 nm and emission spectra were recorded between 500 and 600 nm. […] For all experiments, freshly made stocks of peptides and their fluorescently labeled analogs in HFIP were used. Measurements were performed in 10 mM sodium phosphate buffer (pH 7.4) containing 1% HFIP within 2-5 min following solution preparation at room temperature. Of note, under these conditions freshly made Fluos-IAPP (5 nM) solutions consist mostly of monomers. App. Kds were calculated using 1/1 binding models as previously described and are means (±SD) of three binding curves.

RIN5fm cells = type: cell-based, rat
Description: as §1

IAPP [3] = biological target: T1, IAPP; test: Far-UV CD spectroscopy of IAPP conformation and misfolding; details: 1/1, 5 μM each, pH 7.4
Description: Far-UV CD studies were performed using a Jasco 715 spectropolarimeter. Spectra were recorded at room temperature between 195 and 250 nm, at 0.1 nm intervals, and with a response time of 1 second. Each spectrum is an average of 3 spectra. All CD studies were performed in aqueous 10 mM sodium phosphate buffer (pH 7.4) containing 1% HFIP (CD assay buffer) at room temperature; this assay system has been earlier developed and found to be suitable for following kinetics of IAPP (5 μM) misfolding into β-sheets and amyloid fibrils alone or in the presence of inhibitors. Briefly, peptide stocks in HFIP were freshly made (4° C.), diluted with assay buffer (room temperature) at the indicated concentrations within the cuvette, and following gentle mixing spectra were measured immediately or at the indicated incubation time points. […] The CD spectrum of IAPP at the incubation time point of 24 h (endpoint) was measured after gentle mixing to re-dissolve precipitated aggregates. The CD spectrum of the buffer was always subtracted from the CD spectra of the peptide solutions.

IAPP [4] = biological target: T1, IAPP; test: Cross-linking, NuPAGE and Western blot; details: IAPP 30 μM, 1/1, pH 7.4
Description: Cross-linking studies were preformed using a previously developed assay system. […] Solutions were cross-linked using 25% aqueous glutaraldehyde (Sigma-Aldrich) and 10% aqueous trichloroacetic acid (TCA) was used to precipitate cross-linked peptides. Pellets were dissolved in reducing NuPAGE sample buffer, boiled for 5 min, and subjected to NuPAGE electrophoresis in 4-12% Bis-Tris gels with MES running buffer (Invitrogen). The same volume of each solution (same IAPP amount) was loaded in all lanes. Peptides were blotted using a XCell II Blot Module blotting system (Invitrogen).

[5] = system: autoimmune diabetes in NOD mice; details: prediabetic NOD mice; cited from earlier work
[6] = biological target: T3, IAPP monomers and fibrils (Homo sapiens, UniProt P10997); test: Dot blot analysis; type: binding; details: FAM-LL-37 200 nM, IAPP 40 μg spotted
T3 construct: made in house; host or cells: chemical synthesis (Fmoc solid-phase, Rink resin)
T3 sequence (P10997 34-70 limits assumed): T1 sequence (P10997 34-70 limits assumed)
Description: IAPP monomers or IAPP fibrils (fIAPP) containing solutions (different amounts up to 40 μg) were spotted onto a nitrocellulose membrane. These solutions were prepared by incubating an IAPP solution (1 mg/ml) in ThT assay buffer for 0 h (“monomers”) or 24 h (“fibrils”); the presence of fibrils was confirmed by ThT binding and TEM (not shown). The membrane was washed with TBSn (20 mM Tris/HCl, 150 mM NaCl and 0.05% Tween-20), blocked with 5% milk in TBSn overnight at 10° C., and washed again with TBSn. […] Following washings with incubation buffer and TBSn, bound FAM-LL-37 was visualized with a LAS-4000mini instrument (Fujifilm). Of note, glucagon fibrils were spotted as well to control for the specificity of the observed strong binding of FAM-LL-37 to fIAPP (not shown). Glucagon fibrils were made by incubating glucagon in 10 mM HCl (2 μg/μl) (10 days) followed by neutralization with 10 mM NaOH; ThT binding and TEM confirmed fibril formation (not shown). The ThT buffer alone was also spotted to control for NSB. In addition, to control for the interference of fibril autofluorescence, a membrane containing spotted fIAPP which had been incubated in buffer alone w/o FAM-LL-37 was included in each assay; in general, fIAPP autofluorescence contributed up to 25% of the total amount of fluorescence observed in fIAPP bound to FAM-LL-37.

[7] = aged IAPP/peptide mixtures 1/1, RIN5fm cells

effect on IAPP amyloid self-assembly (fibrillogenesis) (IAPP [1]; IAPP 16.5 μM): unable to interfere | pKd (Fluos-IAPP; Fluos-IAPP 5 nM): 5.60 | weaker binding to Fluos-IAPP (Fluos-IAPP; app. Kd comparison): ~ 30 fold
Molecule: CC[C@H](C)[C@H](NC(=O)[C@H](CCCCN)NC(=O)[C@H](CCC(=O)O)NC(=O)[C@H](CCCCN)NC(=O)[C@H](CO)NC(=O)[C@H](CCCCN)NC(=O)[C@H](CCCNC(=N)N)NC(=O)[C@H](Cc1ccccc1)NC(=O)[C@H](Cc1ccccc1)NC(=O)[C@H](CC(=O)O)NC(=O)CNC(=O)[C@H](CC(C)C)NC(=O)[C@@H](N)CC(C)C)C(=O)NCC(=O)O [LL-37(1-14)] (H-LLGDFFRKSKEKIG-OH; N-terminus assumed)
effect on formation of cytotoxic IAPP assemblies (cell-damaging effects) [2, 7]: unable to interfere

effect on IAPP amyloid self-assembly (fibrillogenesis) (IAPP [1]; IAPP 16.5 μM): unable to interfere | pKd (Fluos-IAPP; Fluos-IAPP 5 nM): 7.50
Molecule: CC[C@H](C)[C@H](NC(=O)[C@H](CCCNC(=N)N)NC(=O)[C@H](CCC(N)=O)NC(=O)[C@@H](NC(=O)[C@@H](NC(=O)[C@H](CCCNC(=N)N)NC(=O)[C@H](CCCCN)NC(=O)[C@H](Cc1ccccc1)NC(=O)[C@H](CCC(=O)O)NC(=O)[C@@H](N)CCCCN)[C@@H](C)CC)C(C)C)C(=O)N[C@@H](CCCCN)C(=O)N[C@@H](CC(=O)O)C(=O)N[C@@H](Cc1ccccc1)C(=O)N[C@@H](CC(C)C)C(=O)N[C@@H](CCCNC(=N)N)C(=O)N[C@@H](CC(N)=O)C(=O)N[C@@H](CC(C)C)C(=O)N[C@H](C(=O)N1CCC[C@H]1C(=O)N[C@@H](CCCNC(=N)N)C(=O)N[C@H](C(=O)N[C@@H](CCC(=O)O)C(=O)N[C@@H](CO)C(=O)O)[C@@H](C)O)C(C)C [LL-37(15-37)] (H-KEFKRIVQRIKDFLRNLVPRTES-OH; N-terminus assumed)
effect on formation of cytotoxic IAPP assemblies (cell-damaging effects) [2, 7]: unable to interfere

binding to IAPP monomers and fibrils [6]: bound both IAPP fibrils and monomers
Molecule: FAM-LL-37: N-amino-terminal fluorescein labeled LL-37 with a 6-aminohexanoic acid spacer between FAM and the N-terminus

Further lines, the molecule ahead of its results:

Molecule: CC[C@H](C)[C@H](NC(=O)[C@H](CCCCN)NC(=O)[C@H](CCC(=O)O)NC(=O)[C@H](CCCCN)NC(=O)[C@H](CO)NC(=O)[C@H](CCCCN)NC(=O)[C@H](CCCNC(=N)N)NC(=O)[C@H](Cc1ccccc1)NC(=O)[C@H](Cc1ccccc1)NC(=O)[C@H](CC(=O)O)NC(=O)CNC(=O)[C@H](CC(C)C)NC(=O)[C@@H](N)CC(C)C)C(=O)NCC(=O)N[C@@H](CCCCN)C(=O)N[C@@H](CCC(=O)O)C(=O)N[C@@H](Cc1ccccc1)C(=O)N[C@@H](CCCCN)C(=O)N[C@@H](CCCNC(=N)N)C(=O)N[C@H](C(=O)N[C@H](C(=O)N[C@@H](CCC(N)=O)C(=O)N[C@@H](CCCNC(=N)N)C(=O)N[C@H](C(=O)N[C@@H](CCCCN)C(=O)N[C@@H](CC(=O)O)C(=O)N[C@@H](Cc1ccccc1)C(=O)N[C@@H](CC(C)C)C(=O)N[C@@H](CCCNC(=N)N)C(=O)N[C@@H](CC(N)=O)C(=O)N[C@@H](CC(C)C)C(=O)N[C@H](C(=O)N1CCC[C@H]1C(=O)N[C@@H](CCCNC(=N)N)C(=O)N[C@H](C(=O)N[C@@H](CCC(=O)O)C(=O)N[C@@H](CO)C(=O)O)[C@@H](C)O)C(C)C)[C@@H](C)CC)C(C)C)[C@@H](C)CC [LL-37]
effect on IAPP amyloid self-assembly (fibrillogenesis) (IAPP [1]; IAPP 16.5 μM): effectively suppressed IAPP amyloid self-assembly | effect on seeding of IAPP fibrillogenesis by fIAPP (10%) (IAPP [1]; IAPP 16.5 μM, LL-37 1/1, 10% fIAPP seeds): fully suppressed | seeding ability of fIAPP after treatment with peptide (IAPP [1]; fIAPP incubated with LL-37 (10-fold) for 24 h, used as 10% seeds): converts them into seeding incompetent assemblies | effect on formation of cytotoxic IAPP assemblies (cell-damaging effects) [2]: effectively suppressed formation of cytotoxic IAPP assemblies | pIC50 ([2]; rat): 7.77 | cytotoxicity of peptide alone (RIN5fm cells): not cytotoxic | increase of Fluos-IAPP fluorescence emission (Fluos-IAPP; Fluos-IAPP 5 nM, 100-fold molar excess of LL-37): 322% | pKd (Fluos-IAPP; Fluos-IAPP 5 nM): 7.06 | effect on IAPP conformation / misfolding (IAPP [3]): strong time-dependent increase of random coil contents and no precipitation occurred | hetero-assemblies with IAPP by cross-linking (IAPP [4]): formation of IAPP-LL-37 hetero-tetramers

Molecule: CC[C@H](C)[C@H](NC(=O)[C@H](CCCCN)NC(=O)[C@H](CO)NC(=O)[C@H](Cc1ccccc1)NC(=O)[C@H](CCC(=O)O)NC(=O)[C@H](Cc1ccccc1)NC(=O)[C@H](CCCNC(=N)N)NC(=O)[C@H](CC(C)C)NC(=O)[C@H](CCCCN)NC(=O)[C@H](CC(C)C)NC(=O)CN)C(=O)N[C@@H](CCCCN)C(=O)NCC(=O)N[C@@H](CCC(=O)O)C(=O)N[C@@H](Cc1ccccc1)C(=O)N[C@@H](CC(C)C)C(=O)N[C@@H](CCCCN)C(=O)N[C@H](C(=O)N1CCC[C@H]1C(=O)N[C@@H](CCC(=O)O)C(=O)N[C@H](C(=O)N[C@@H](CCCNC(=N)N)C(=O)N[C@@H](Cc1ccccc1)C(=O)N[C@@H](CCCNC(=N)N)C(=O)N[C@@H](CC(=O)O)C(=O)N[C@H](C(=O)N[C@@H](CCCCN)C(=O)N[C@@H](CC(C)C)C(=O)N[C@@H](CCCCN)C(=O)N[C@@H](CC(=O)O)C(=O)N[C@@H](CC(N)=O)C(=O)N[C@@H](CCCNC(=N)N)C(=O)N[C@H](C(=O)N[C@@H](CO)C(=O)N[C@H](C(=O)N[C@@H](CCC(N)=O)C(=O)N[C@@H](CCCNC(=N)N)C(=O)O)C(C)C)[C@@H](C)CC)[C@@H](C)CC)C(C)C)[C@@H](C)O [scrLL-37, reference compound] (H-GLKLRFEFSKIKGEFLKTPEVRFRDIKLKDNRISVQR-OH)
effect on IAPP cytotoxicity ([2]; up to 10-fold molar excess of peptide, 7 days aged, RIN5fm cells): unable to inhibit

Molecule: CRAMP
effect on autoimmune diabetes [5]: dampening the incidence of autoimmune diabetes
